Measured values taken from US20110081675A1, “Metabolic Biomarkers Of Drug-Induced Cardiotoxicity” (WISCONSIN ALUMNI RESEARCH FOUNDATION, priority 2009, published 2011).

Columns and labels:
human cardiomyocytes = test system: human cardiomyocytes
Procedure: The percentage of cell death, inherently and after drug treatment, was calculated by Trypan Blue staining (FIG. 2).
The doses for each compound were based upon published standards, equivalent to therapeutic circulating levels whenever possible (see Table 1).

[1] = test system: human cardiomyocytes (Celprogen 36044-15at); assay: LC-ESI-TOF-MS metabolomics of extracellular media of drug-treated human cardiomyocytes (Tables 2A-2C); type: cell-based; details: 15uM paclitaxel
Procedure: Data for statistical analysis were extracted from chromatograms using the Agilent Mass Hunter software (Product No. G3297AA, Agilent Technologies, Inc., Santa Clara, Calif.); it will be understood that alternative statistical analysis methods can be used. Masses were binned together if they were within 10 ppm and eluted within a 2 minutes retention time window. A binned mass was considered to be the same molecule across different LC-ESI-TOF-MS analyses (referred to herein as an “exact mass,” which will be understood to be ±10 ppm). Binning of the data is required for statistical analysis and comparison of masses across the entire experiment. If multiple peaks with the same mass at the same retention time within a single sample were detected by Mass Hunter, they were averaged to assist data analysis. Masses lacking a natural isotopic distribution or with an absolute height of less than 1000 were removed from the data prior to analysis. It would be understood that the results from this assay provide relative values that are assessed according to annotated values within 10 ppm to provide an identity for the molecular weight detected. Thus, a mass shift within 10 ppm is considered consistent with determining the identity of a specific cellular metabolite previously annotated due to differences in ionization source and instrumentation, e.g. between different experiments or using different instruments.
As used herein, a mass was considered to be the same across LC/ESI-TOF-MS runs using a simple algorithm that first sorts the data by mass and retention time. […] If a series of measurements fit this definition it was considered to be from the same compound. If either the mass or the retention time varied by more than the limits listed above it was considered to be a different compound and given a new unique designation.
The data from the most reproducible mass features was log base 2 transformed and median centered prior to statistical analysis. […] To test the null hypothesis a one way permutation based t-test assuming a normal approximation of the conditional distribution was used and implement using the Conditional Inference Procedures in a Permutation Test Framework (Coin) library, a contributed package of programming code. Statistics tests were performed without replacement of missing values decrease the degrees of freedom rather than imputing missing values. […] False discovery rates (FDR) were controlled using the Q value estimator (Storey et al., 2003, Proc Natl Acad. Sci., 100:9440-5) and implemented using the qvalue library in R (Dabney et al., 2003, qvalue: Q-value estimation for false discovery rate control. R package version 1.10.0., www.CRAN.R-project.org).
The extracellular media from treated and untreated cells was processed as described in Cezar et al., (2007, Stem Cells Development 16: 869-882, this publication is incorporated by reference), for extraction of low molecular weight molecules (<3 kD) for metabolomics analysis. Extracellular low molecular weight molecule preparations were separated by liquid chromatography followed by electrospray ionization time of flight (LC-ESI-TOF-MS) mass spectrometry for ionization and detection of the full spectra of low molecular weight molecules present in each sample. More specifically, the samples were separated using the ESI_Luna_HILIC—95_t—06OACN—16 min method (HILIC chromatography). Statistical differences were inferred by subsequent bioinformatics and in silico mapping of deisotoped ESI-TOF-MS mass features as described below (also provided in Cezar et al. (2007, id.)).
Briefly, ionization (100 m/z-1500 m/z) was acquired on an Agilent 6520 Accurate-Mass Q-TOF in extended dynamic range and positive mode. Mass features were generated using two independent methods. First MassHunter Qualitative Analysis was used to generate mass features using the Molecular Feature Extraction algorithm (MFE).

SMILES: CC(=O)O[C@H]1C(=O)[C@@]2(C)[C@H]([C@H](OC(=O)c3ccccc3)[C@]3(O)C[C@H](OC(=O)[C@H](O)[C@@H](NC(=O)c4ccccc4)c4ccccc4)C(C)=C1C3(C)C)[C@]1(OC(C)=O)CO[C@@H]1C[C@@H]2O [Paclitaxel]
- cell death (in words) (human cardiomyocytes): significantly higher cell death
- pacfold ([1]; feature cpdID 36, neutral mass 101.1204, RT 0.720145, Triethylamine or Hexylamine): 1.413 fold
- pacfold ([1]; feature cpdID 8902, neutral mass 276.1256, RT 8.733378, no hit): 2.728 fold
- pacfold ([1]; feature cpdID 11232, neutral mass 311.1029, RT 7.400847, p-Glucosyloxymandelonitrile or (S)-4-Hydroxymandelonitrile beta-D-glucoside): 4.25 fold
- pacfold ([1]; feature cpdID 14190, neutral mass 356.253, RT 1.103957, HMDB04239, 13,14-dihydro PGE1 or Prostaglandin F1alpha): 12.08 fold
- pacfold ([1]; feature cpdID 15112, neutral mass 372.0557, RT […], no hit): −1.026 fold
- pacfold ([1]; feature cpdID 16504, neutral mass 393.0913, RT 7.25538, no hit): 1.219 fold
- pacfold ([1]; feature cpdID 16939, neutral mass 400.2796, RT 1.108613, 7-Ketocholesterol): 11.76 fold
- pacfold ([1]; feature cpdID 17096, neutral mass 403.1776, RT 6.2306, no hit): −2.028 fold
- pacfold ([1]; feature cpdID 19500, neutral mass 444.3034, RT 1.106333, […]-Dihydroxyvitamin D3-26,23-lactone): 17.08 fold
- pacfold ([1]; feature cpdID 19704, neutral mass 448.1344, RT 7.184483, no hit): 2.694 fold
- pacfold ([1]; feature cpdID 21926, neutral mass 488.3323, RT 1.106573, no hit): 8.467 fold
- pacfold ([1]; feature cpdID 23129, neutral mass 515.181, RT 10.44297, no hit): 1.263 fold
- pacfold ([1]; feature cpdID 23163, neutral mass 516.1241, RT 7.217222, Formononetin 7-O-glucoside-6″-O-malonate, Isochlorogenic acid b or 13-Dicaffeoylquinic acid): 2.288 fold
- pacfold ([1]; feature cpdID 24142, neutral mass 538.2779, RT 0.783395, no hit): 1.807 fold
- pacfold ([1]; feature cpdID 25445, neutral mass 572.1055, RT 7.089848, no hit): 1.259 fold
- pacfold ([1]; feature cpdID 25601, neutral mass 576.3861, RT 1.10751, 3-Hexaprenyl-4-hydroxy-5-methoxybenzoic acid): 5.623 fold
- pacfold ([1]; feature cpdID 27363, neutral mass 620.4117, RT 1.108317, no hit): 3.53 fold
- pacfold ([1]; feature cpdID 28720, neutral mass 661.1924, RT 6.495524, no hit): 1.205 fold
- pacfold ([1]; feature cpdID 29101, neutral mass 672.1828, RT 6.528464, no hit): 2.408 fold
- pacfold ([1]; feature cpdID 29124, neutral mass 672.6836, RT 6.559082, no hit): 1.432 fold
- pacfold ([1]; feature cpdID 29227, neutral mass 676.1781, RT 1.298314, no hit): −1.322 fold
- pacfold ([1]; feature cpdID 31637, neutral mass 744.1091, RT 1.26415, no hit): −1.129 fold
- pacfold ([1]; feature cpdID 37922, neutral mass 932.7613, RT 6.562271, no hit): 1.506 fold
- pacfold ([1]; feature cpdID 40510, neutral mass 1040.322, RT 6.499979, no hit): 1.465 fold
- pacfold ([1]; feature cpdID 42137, neutral mass 1122.172, RT 1.256606, no hit): −2.322 fold
- pacfold ([1]; feature cpdID 45209, neutral mass 1300.402, RT 6.501484, no hit): 1.771 fold
- pacfold ([1]; feature cpdID 45486, neutral mass 1322.385, RT 6.518707, no hit): 1.836 fold
